Measurements: patent US9789111B2, “Casein kinase 1δ (CK 1δ) inhibitors” (Electrophoretics Limited, priority 2010, dated 2017)

Assays:
SH-SY5Y-TMHT cells = assay: Cell viability, MTT assay; format: cell-based, human; details: 6 h of treatment
Protocol: (§1) SH-SY5Y-TMHT cells are kept in culture medium (DMEM medium, 10% FCS, 1% NEAA, 1% L-Glutamine, 100 μg/ml Gentamycin, 300 μg/ml Geneticin G-418) for 2 days until 80-90% confluency. Cells are then differentiated in culture medium supplemented with 10 μM retinoic acid (RA) for 7 days changing medium every 2 to 3 days. Differentiated cells are seeded onto 6-well plates and 96-well plates at a cell density of 1.25×10^6 and 8×10^5 cells per well, respectively. On day 8 post-differentiation, the test compounds, reference compounds and vehicle control were added to the culture medium. After 6 h of compound exposure one plate of cells is subjected to a MTT assay to evaluate the effect of test and reference items on cell viability. Remaining wells are washed once with cold PBS and harvested in 300 μl RIPA-Buffer [50 mM Tris pH 7.4, 1% Nonident P40, 0.25% Na-deoxy-cholate, 150 mM NaCl, 1 mM EDTA, 1 μM NaF, 1 μM Na-ortho-vanadate, 80 mM Glycerophosphate, supplemented with freshly added protease (Calbiochem) and phosphatase (Sigma) inhibitor cocktail]. The cell suspension is transferred into a 1.5 ml tube and additionally lysed by sonication on ice. An aliquot of 20 μl is taken for the determination of the protein concentration (BCA assay). Subsequently, the lysates are snap frozen and stored at −80° C. until shipment.
To determine compound activity, it is necessary to control for potential cell toxicity of all molecules. Viability of cultures is determined by the MTT assay. This assay allows the measurement of the mitochondrial dehydrogenase activity which reduces yellow MTT to dark blue formazan crystals. Since this reaction is catalyzed in living cells only this assay is used for the determination of cell viability. MTT solution is added to each well in a final concentration of 0.5 mg/ml. After 2 hours, the MTT containing medium is aspired. Cells are lysed in 3% SDS and the formazan crystals are dissolved in isopropanol/HCl. Optical density is measured with a plate-reader at wavelength 570 nm. Cell survival rate is expressed as optical density (OD). Values are calculated as percent of control values.
Cell viability was determined in differentiated SH-SY5Y-TMHT cells by the MTT assay. Test and reference compounds were applied in a concentration range from 0.05 μM to 10 μM and from 0.1 μM to 1 μM, respectively. Upon 6 h of treatment, cell viability was evaluated. […] Statistical significance is indicated by *<0.05, **<0.01, ***<0.001 as determined by One-Way ANOVA. Data are shown from two independent experiments as group mean+/−SEM (n=8). […] Statistical significance is indicated by *<0.05, **<0.01, ***<0.001 as determined by One-Way ANOVA. […] Statistical significance is indicated by *<0.05, **<0.01, ***<0.001 as determined by One-Way ANOVA. […]

FGFR1 = FGFR1 (Homo sapiens, UniProt P11362); assay: kinase inhibition assay panel; format: biochemical
Chain of FGFR1 (P11362 22-822, species assumed): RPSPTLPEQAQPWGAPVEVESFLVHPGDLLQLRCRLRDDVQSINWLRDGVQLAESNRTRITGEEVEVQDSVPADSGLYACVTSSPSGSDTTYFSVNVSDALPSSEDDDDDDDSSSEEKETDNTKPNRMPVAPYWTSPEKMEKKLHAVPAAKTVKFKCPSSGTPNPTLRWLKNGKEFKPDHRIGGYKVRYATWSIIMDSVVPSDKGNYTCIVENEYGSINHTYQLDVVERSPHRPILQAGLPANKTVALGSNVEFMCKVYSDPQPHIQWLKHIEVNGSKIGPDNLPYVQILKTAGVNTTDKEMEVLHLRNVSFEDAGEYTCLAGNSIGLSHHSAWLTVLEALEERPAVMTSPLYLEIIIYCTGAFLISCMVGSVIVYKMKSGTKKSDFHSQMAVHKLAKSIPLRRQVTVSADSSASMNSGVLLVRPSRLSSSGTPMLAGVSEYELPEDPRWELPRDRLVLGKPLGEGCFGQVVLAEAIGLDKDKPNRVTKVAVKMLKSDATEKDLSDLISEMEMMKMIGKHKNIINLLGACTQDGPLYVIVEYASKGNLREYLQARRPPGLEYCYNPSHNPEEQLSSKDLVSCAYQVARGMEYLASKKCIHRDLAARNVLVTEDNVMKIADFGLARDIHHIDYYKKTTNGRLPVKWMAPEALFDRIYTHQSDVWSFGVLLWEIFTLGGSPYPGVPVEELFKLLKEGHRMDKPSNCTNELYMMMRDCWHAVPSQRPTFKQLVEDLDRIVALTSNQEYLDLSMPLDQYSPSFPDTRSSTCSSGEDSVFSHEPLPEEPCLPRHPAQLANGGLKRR

[1] = tested on: Tau phosphorylated at Threonine 231 in SH-SY5Y-TMHT cells; assay: Western Blot of Tau phosphorylated at Threonine 231; format: cell-based, human; details: for detectable level of pT231 in Tau protein: 10 μM, Western Blot; for phosphorylation of Thr 231 within Tau proteins: FIG. 5
Protocol: as §1
Lysates of treated cells were prepared in Laemmli buffer and 10 μg loaded into each lane of a 10% Nu-PAGE gel (Invitrogen, UK). Samples were run until the coomassie blue dye fromt was within 1 cm of the bottom of the gel. The separated proteins were transferred onto nitrocellulose and blots developed using antibodies specific for total tau (Polyclonal Rabbit Anti-Human Tau, Dako, UK (cat # A0024)) and phopho-Threonine 231 (Tau (Phospho-Thr231) Antibody, Signalway Antibody, USA (cat # 11110)) respectively. In each case the bound antibody was detected using ECL Rabbit IgG, HRP-Linked (from donkey) (GE Healthcare, UK (cat # NA934))

CK1g1 = CK1g1 (Homo sapiens, UniProt Q9HCP0); assay: kinase inhibition assay panel; format: biochemical
Chain of CK1g1 (Q9HCP0 whole entry): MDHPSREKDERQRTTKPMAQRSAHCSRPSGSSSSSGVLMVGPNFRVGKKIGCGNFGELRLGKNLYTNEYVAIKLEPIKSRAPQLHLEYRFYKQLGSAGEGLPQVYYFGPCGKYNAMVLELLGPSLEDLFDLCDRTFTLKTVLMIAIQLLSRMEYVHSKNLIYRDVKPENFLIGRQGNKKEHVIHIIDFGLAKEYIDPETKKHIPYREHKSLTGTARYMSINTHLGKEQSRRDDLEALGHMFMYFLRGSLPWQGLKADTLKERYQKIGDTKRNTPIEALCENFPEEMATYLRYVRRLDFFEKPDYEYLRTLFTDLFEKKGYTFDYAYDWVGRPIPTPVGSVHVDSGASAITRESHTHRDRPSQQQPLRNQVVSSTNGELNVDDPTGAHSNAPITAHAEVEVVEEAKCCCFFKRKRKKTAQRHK

CK1g3 = CK1g3 (Homo sapiens, UniProt Q9Y6M4); assay: kinase inhibition assay panel; format: biochemical
Chain of CK1g3 (Q9Y6M4 whole entry): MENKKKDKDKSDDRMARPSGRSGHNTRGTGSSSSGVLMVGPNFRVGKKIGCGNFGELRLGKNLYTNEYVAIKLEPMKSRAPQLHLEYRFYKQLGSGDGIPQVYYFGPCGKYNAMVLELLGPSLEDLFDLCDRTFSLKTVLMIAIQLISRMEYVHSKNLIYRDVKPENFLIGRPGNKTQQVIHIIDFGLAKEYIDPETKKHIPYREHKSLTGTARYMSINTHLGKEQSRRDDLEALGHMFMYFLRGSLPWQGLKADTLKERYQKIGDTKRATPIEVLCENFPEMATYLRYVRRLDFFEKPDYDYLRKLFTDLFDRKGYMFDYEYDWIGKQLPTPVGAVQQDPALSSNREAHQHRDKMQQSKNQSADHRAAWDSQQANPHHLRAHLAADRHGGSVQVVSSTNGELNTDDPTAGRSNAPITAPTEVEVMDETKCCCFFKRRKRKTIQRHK

CLK2 = CLK2 (Homo sapiens, UniProt P49760); assay: kinase inhibition assay panel; format: biochemical
Chain of CLK2 (P49760 whole entry, species assumed): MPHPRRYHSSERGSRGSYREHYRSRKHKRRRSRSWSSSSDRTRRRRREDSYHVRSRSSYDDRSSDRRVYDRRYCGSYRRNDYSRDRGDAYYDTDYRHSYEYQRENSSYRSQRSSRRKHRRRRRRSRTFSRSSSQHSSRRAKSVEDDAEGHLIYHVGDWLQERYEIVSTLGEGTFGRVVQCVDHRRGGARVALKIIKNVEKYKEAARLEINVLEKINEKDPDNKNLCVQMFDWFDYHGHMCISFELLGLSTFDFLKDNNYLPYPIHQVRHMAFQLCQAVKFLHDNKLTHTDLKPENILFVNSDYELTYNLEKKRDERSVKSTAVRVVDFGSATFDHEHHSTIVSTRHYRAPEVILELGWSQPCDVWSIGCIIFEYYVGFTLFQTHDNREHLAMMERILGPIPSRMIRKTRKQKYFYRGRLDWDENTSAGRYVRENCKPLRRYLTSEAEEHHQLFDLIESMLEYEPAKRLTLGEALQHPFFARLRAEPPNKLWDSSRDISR

inhibition of FGFR1 (FGFR1) | inhibition of CK1g1 (CK1g1) | inhibition of CK1g3 (CK1g3) | inhibition of CLK2 (CLK2) | SMILES | effect on the cell viability of SH-SY5Y-TMHT cells (SH-SY5Y-TMHT cells; 0.05 μM to 10 μM, vs vehicle control) | protective effect on cell viability, statistical significance (SH-SY5Y-TMHT cells; 10 μM, One-Way ANOVA) | detectable level of pT231 in Tau protein [1] | phosphorylation of Thr 231 within Tau proteins [1] | effect on the cell viability of SH-SY5Y-TMHT cells (SH-SY5Y-TMHT cells; 1 and 0.5 μM)
lower than 40% | lower than 40% | lower than 40% | lower than 40% | Nc1ncc(-c2nc3ccccc3o2)c(-c2ccncc2)n1 [Compound 324, 5-(1,3-benzoxazol-2-yl)-4-(pyridin-4-yl)pyrimidin-2-amine] | protective effect on the cell viability of SH-SY5Y-TMHT cells in a dose dependent manner | statistically significant | reduced the detectable level of pT231 | inhibit phosphorylation | 
lower than 40% | lower than 40% | lower than 40% | lower than 40% | NC(=O)c1c(N)c(C(=O)c2ccc(F)cc2)n2ccccc12 [Compound 987, 2-amino-3-[(4-fluorophenyl)carbonyl]indolizine-1-carboxamide] |  |  | reduced the detectable level of pT231 | inhibit phosphorylation | no cytotoxic effect
